Reference: patent US20110262490A1, “POLYMER-AGENT CONJUGATES, PARTICLES, COMPOSITIONS, AND RELATED METHODS OF USE” (priority 2009, published 2011)

Legend:
B16.F10 tumor = assay: In vivo efficacy in B16.F10 mouse model of melanoma (Example 39)
Procedure: The treatments were administered on days 5, 8, and 12 (biweekly×3 injections) post tumor implantation. Health status of the animals was monitored and tumor size was measured three times a week. […] Tumors from each animal were dissected and tumor size was measured. Tumor volume was calculated using the formula: (width×width×length)/2 mm^3.

B16.F10 cells = assay: CellTiter-Glo Luminescent Cell Viability Assay (cytotoxicity); type: cell-based, mouse; settings: 24, 48 and 72 hours
Procedure: B16.F10 cells, grown to 85-90% confluency in 150 cm^2 flasks (passage <30), were resuspended in media (MEM-alpha, 10% HI-FBS, 1× antibiotic-antimycotic) and added to 96-well opaque-clear bottom plates at a concentration of 1500 cells/well in 200 μL/well. The cells were incubated at 37° C. with 5% CO2 for 24 hours. The following day, serial dilutions of 2× concentrated particles and 2× concentrated free drug were made in 12-well reservoirs with media to specified concentrations. The media in the plates was replaced with 100 μL of fresh media and 100 μL of the corresponding serially diluted drug. Three sets of plates were prepared with duplicate treatments. Following 24, 48 and 72 hours of incubation at 37° C. with 5% CO2, the media in the plates was replaced with 100 μL of fresh media and 100 μL of CTG solution, and then incubated for 5 minutes on a plate shaker at room temperature set to 450 rpm and allowed to rest for 15 minutes. Viable cells were measured by luminescence using a microtiter plate reader. The data was plotted as % viability vs. concentration and standardized to untreated cells.

Row | Compound | Growth inhibition of B16.F10 cells (B16.F10 cells) | other results
1 | CC(=O)O[C@H]1C(=O)[C@@]2(C)[C@H]([C@H](OC(=O)c3ccccc3)[C@]3(O)C[C@H](OC(=O)[C@H](O)[C@@H](NC(=O)c4ccccc4)c4ccccc4)C(C)=C1C3(C)C)[C@]1(OC(C)=O)CO[C@@H]1C[C@@H]2O [Free paclitaxel, paclitaxel] |  | Day-17 TGI (B16.F10 tumor; 6 mg/kg IV days 5, 8, 12): 57%; Day-17 TGI (B16.F10 tumor; 6 mg/kg IV days 5, 8, 12, listed as free paclitaxel): 57%; Day-17 TGI (B16.F10 tumor; 15 mg/kg IV days 5, 8, 12): 83%; Day-17 TGI (B16.F10 tumor; 15 mg/kg IV days 5, 8, 12, listed as free paclitaxel): 83%
2 | Bis(Docetaxel) Glutamate-5050 PLGA-O-Acetyl [Example 9] | inhibited the growth of B16.F10 cells in a dose and time dependent manner | 
3 | Docetaxel-5050 PLGA-O-Acetyl [Example 8] | inhibited the growth of B16.F10 cells in a dose and time dependent manner | 
4 | Doxorubicin 5050 PLGA Amide [Example 5] | inhibited the growth of B16.F10 cells in a dose and time dependent manner | 
5 | Paclitaxel-5050 PLGA-O-Acetyl [Example 7] | inhibited the growth of B16.F10 cells in a dose and time dependent manner | 
